Data on one compound can be found in ChEMBL document CHEMBL5143617 (Eur J Med Chem, 2022).

The target of data set [1] is cAMP and cAMP-inhibited cGMP 3',5'-cyclic phosphodiesterase 10A (Homo sapiens, UniProt Q9Y233). Briefly: Inhibition of PDE10A (unknown origin) preincubated for 20 mins followed by substrate addition and measured after 1 hr by PEDlight AMP detection reagent based luminescence assay.
Data set [2] deals with 5-hydroxytryptamine receptor 7 (Homo sapiens, UniProt P34969). Briefly: Displacement of [3H]-5-CT from human 5-HT7 receptor expressed in CHO-K1 cells membrane by scintillation counter analysis. Type of data set: cell membranes. On the technique in general: Displacement assays read how much labelled ligand stays bound in the presence of the test substance.
Sequence of 5-hydroxytryptamine receptor 7 (P34969 whole entry): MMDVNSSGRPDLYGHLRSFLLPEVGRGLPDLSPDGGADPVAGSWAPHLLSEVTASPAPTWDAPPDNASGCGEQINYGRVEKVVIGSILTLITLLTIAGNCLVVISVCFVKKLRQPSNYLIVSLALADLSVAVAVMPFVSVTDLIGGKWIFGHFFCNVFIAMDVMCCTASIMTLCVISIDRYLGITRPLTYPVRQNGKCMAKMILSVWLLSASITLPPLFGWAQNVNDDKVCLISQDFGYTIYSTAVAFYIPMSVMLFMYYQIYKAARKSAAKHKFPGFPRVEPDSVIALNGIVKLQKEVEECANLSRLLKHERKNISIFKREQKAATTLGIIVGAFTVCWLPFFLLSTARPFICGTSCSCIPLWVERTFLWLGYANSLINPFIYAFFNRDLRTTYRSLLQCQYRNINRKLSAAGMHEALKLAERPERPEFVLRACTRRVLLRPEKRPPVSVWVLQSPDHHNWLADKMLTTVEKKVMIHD
In data set [3] the target is 5-hydroxytryptamine receptor 2A (Homo sapiens, UniProt P28223). Briefly: Binding affinity to 5HT-2A receptor (unknown origin).
Sequence of 5-hydroxytryptamine receptor 2A (P28223 whole entry): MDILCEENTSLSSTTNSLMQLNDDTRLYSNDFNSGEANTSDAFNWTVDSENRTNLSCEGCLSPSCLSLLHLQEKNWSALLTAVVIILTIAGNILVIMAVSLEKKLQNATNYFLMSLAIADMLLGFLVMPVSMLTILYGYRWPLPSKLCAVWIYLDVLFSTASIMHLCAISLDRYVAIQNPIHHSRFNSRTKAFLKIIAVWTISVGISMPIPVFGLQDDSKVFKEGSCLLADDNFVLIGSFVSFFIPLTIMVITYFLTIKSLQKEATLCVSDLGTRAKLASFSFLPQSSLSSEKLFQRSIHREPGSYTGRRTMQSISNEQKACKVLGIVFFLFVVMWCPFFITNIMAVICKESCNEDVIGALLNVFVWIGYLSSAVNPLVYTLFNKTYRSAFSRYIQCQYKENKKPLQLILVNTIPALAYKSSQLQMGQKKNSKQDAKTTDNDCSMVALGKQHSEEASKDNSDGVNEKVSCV
A further data set concerns the target D(2) dopamine receptor (Homo sapiens, UniProt P14416). Briefly: Binding affinity to dopamine D2 receptor (unknown origin).
The target of data set [4] is T1, Adrenergic receptor alpha-1 (Homo sapiens, UniProt P35348+P25100+P35368).
T1 sequence (P35348 whole entry): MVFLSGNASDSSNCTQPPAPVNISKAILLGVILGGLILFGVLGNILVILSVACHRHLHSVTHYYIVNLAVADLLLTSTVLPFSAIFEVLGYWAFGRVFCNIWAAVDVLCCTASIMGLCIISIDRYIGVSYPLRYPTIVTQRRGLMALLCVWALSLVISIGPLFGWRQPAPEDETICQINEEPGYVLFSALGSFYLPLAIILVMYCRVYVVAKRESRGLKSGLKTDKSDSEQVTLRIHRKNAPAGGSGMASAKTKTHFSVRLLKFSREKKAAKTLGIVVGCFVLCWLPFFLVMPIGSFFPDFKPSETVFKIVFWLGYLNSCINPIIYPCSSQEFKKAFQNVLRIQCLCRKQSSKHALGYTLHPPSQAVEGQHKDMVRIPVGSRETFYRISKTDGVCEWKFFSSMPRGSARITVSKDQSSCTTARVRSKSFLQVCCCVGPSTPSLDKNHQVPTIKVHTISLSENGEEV
T1 sequence (P25100 whole entry): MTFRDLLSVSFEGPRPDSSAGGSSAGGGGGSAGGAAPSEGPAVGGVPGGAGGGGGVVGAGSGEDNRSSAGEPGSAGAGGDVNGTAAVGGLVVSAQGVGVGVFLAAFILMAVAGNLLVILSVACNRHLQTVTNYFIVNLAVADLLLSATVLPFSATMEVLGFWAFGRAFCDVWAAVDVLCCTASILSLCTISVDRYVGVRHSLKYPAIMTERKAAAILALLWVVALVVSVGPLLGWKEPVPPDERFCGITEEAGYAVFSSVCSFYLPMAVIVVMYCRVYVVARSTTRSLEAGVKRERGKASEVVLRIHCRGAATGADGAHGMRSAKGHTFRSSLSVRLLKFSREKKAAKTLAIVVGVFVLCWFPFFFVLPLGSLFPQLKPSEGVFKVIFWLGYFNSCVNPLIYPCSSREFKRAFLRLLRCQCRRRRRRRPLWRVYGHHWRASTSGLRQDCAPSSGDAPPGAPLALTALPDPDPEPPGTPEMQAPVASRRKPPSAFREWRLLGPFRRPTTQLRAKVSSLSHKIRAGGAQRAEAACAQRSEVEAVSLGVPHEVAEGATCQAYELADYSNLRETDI
T1 sequence (P35368 whole entry): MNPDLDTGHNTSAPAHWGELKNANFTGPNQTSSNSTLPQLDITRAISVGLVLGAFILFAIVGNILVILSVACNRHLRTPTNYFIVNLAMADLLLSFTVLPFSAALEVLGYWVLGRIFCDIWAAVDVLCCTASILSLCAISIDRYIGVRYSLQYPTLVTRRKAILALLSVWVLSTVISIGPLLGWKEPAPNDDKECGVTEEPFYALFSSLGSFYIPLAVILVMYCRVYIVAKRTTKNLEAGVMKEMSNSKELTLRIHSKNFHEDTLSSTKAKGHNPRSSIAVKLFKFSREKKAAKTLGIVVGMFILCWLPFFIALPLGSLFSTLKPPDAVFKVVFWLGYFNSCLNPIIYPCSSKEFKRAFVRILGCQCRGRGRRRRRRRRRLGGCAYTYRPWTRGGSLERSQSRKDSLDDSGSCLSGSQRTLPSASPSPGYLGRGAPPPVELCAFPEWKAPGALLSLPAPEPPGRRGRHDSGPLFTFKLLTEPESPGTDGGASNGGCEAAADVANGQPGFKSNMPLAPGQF
Briefly: Binding affinity to adrenergic alpha 1 receptor (unknown origin). Type of data set: protein assay.

Data set [5] can be described thus: Metabolic stability in human liver microsomes assessed as intrinsic clearance. On the technique in general: Liver microsomes are a subcellular fraction often used to study metabolism.
Data set [6] is described as follows: Tmax in mouse plasma at 1.25 mg/kg, ip measured up to 480 mins by LC/ESI-MS/MS analysis. The class given is ADME, organism-based.
Data set [7] can be described thus: Cmax in mouse plasma at 1.25 mg/kg, ip measured up to 480 mins by LC/ESI-MS/MS analysis. Type of data set: ADME, organism-based. Set-up: time < 480 min, dose 1.25 mg/kg, route ip.
Data set [8] in a line: AUC(0 to t) in mouse plasma at 1.25 mg/kg, ip measured up to 480 mins by LC/ESI-MS/MS analysis. Set-up: dose 1.25 mg/kg, time < 480 min, route ip. The note with it: in vivo, 8 h. The class given is ADME, organism-based.
Data set [9] in a line: Apparent volume of distribution in mouse plasma at 1.25 mg/kg, ip measured up to 480 mins by LC/ESI-MS/MS analysis. Type of data set: ADME, organism-based.
Data set [10] is described as follows: Tmax in mouse hippocampus at 1.25 mg/kg, ip by LC/ESI-MS/MS analysis. The class given is ADME, organism-based.
A short description of data set [11]: Cmax in mouse hippocampus at 1.25 mg/kg, ip by LC/ESI-MS/MS analysis. The class given is ADME, organism-based. Set-up: dose 1.25 mg/kg, route ip.
Data set [12] in a line: AUC(0 to t) in mouse hippocampus at 1.25 mg/kg, ip by LC/ESI-MS/MS analysis. Type of data set: ADME, organism-based. Set-up: dose 1.25 mg/kg, route ip.
The nature of data set [13]: AUC(0 to t) in mouse striatum at 1.25 mg/kg, ip by LC/ESI-MS/MS analysis. Type of data set: ADME, organism-based. Set-up: dose 1.25 mg/kg, route ip.
The nature of data set [14]: Tmax in mouse striatum at 1.25 mg/kg, ip by LC/ESI-MS/MS analysis. The class given is ADME, organism-based.
A short description of data set [15]: Cmax in mouse striatum at 1.25 mg/kg, ip by LC/ESI-MS/MS analysis. The class given is ADME, organism-based. Further details: dose 1.25 mg/kg, route ip.
A short description of data set [16]: Tmax in mouse frontal cortex at 1.25 mg/kg, ip by LC/ESI-MS/MS analysis. The class given is ADME, organism-based.
The nature of data set [17]: Cmax in mouse frontal cortex at 1.25 mg/kg, ip by LC/ESI-MS/MS analysis. Type of data set: ADME, organism-based. Further details: dose 1.25 mg/kg, route ip.
Data set [18] is described as follows: AUC(0 to t) in mouse frontal cortex at 1.25 mg/kg, ip by LC/ESI-MS/MS analysis. Set-up: dose 1.25 mg/kg, route ip. Type of data set: ADME, organism-based.

Sequence of D(2) dopamine receptor (P14416 whole entry): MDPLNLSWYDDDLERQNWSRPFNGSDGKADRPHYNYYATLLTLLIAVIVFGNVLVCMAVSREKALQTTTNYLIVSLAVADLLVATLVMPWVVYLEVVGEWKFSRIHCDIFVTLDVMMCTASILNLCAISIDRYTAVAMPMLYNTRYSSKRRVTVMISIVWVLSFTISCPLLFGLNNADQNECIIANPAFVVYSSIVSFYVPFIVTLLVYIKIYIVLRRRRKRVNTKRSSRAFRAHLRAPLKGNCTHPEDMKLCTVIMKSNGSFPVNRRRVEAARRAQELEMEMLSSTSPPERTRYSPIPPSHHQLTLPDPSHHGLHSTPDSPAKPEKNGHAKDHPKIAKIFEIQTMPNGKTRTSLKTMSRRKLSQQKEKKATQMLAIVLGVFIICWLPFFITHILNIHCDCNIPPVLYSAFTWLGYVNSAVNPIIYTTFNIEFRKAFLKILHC
Sequence of cAMP and cAMP-inhibited cGMP 3',5'-cyclic phosphodiesterase 10A (Q9Y233 whole entry): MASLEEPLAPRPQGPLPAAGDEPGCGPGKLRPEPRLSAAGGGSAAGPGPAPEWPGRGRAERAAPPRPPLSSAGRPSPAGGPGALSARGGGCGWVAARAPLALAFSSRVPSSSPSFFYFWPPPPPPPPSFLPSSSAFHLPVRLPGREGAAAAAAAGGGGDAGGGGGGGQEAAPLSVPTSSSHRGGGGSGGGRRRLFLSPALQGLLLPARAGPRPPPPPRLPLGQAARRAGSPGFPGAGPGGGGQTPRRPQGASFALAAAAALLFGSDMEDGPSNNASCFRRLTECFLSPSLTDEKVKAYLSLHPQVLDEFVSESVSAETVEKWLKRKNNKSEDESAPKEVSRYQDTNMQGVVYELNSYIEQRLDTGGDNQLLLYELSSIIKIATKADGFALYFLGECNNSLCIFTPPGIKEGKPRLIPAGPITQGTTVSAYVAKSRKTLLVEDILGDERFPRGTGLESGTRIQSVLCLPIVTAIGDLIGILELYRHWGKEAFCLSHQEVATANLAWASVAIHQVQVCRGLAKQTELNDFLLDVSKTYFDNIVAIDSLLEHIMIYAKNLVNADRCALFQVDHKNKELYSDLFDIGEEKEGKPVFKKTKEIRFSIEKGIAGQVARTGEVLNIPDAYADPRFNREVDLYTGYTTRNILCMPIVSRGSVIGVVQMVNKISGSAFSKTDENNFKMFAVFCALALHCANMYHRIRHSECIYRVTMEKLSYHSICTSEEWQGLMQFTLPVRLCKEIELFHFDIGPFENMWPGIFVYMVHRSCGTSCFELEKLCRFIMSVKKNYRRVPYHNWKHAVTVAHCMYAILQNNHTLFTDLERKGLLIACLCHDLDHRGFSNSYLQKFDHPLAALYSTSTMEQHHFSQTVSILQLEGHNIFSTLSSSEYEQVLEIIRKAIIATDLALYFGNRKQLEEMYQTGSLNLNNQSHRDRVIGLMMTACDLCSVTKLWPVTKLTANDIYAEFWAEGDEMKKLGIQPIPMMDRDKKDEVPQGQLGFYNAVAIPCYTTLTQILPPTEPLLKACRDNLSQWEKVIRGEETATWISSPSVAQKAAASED

Compound `COc1cccc(N2CCN(CC3CCN(c4ncnc5cc(OC)c(OC)cc45)C3)CC2)c1` (centres undefined) showed a 50% inhibitory concentration (IC50) in [1] of 7080 nM. For the same compound, the values for the inhibitory constant (Ki) (in [2]; in [3]; at D(2) dopamine receptor) were 234 nM, greater than 1000 nM and greater than 1000 nM, respectively. The compound also displayed a negative logarithm of the Ki (pKi) in data set [4] of 6.58. Moreover, the microsomal CLint in [5] amounted to 292 µL/min/mg. Also, the Tmax is 5 min in [6], 30 min in data set [10], 30 min in data set [14] and 15 min in [16]. The Cmax in data set [7] worked out at 13.3 ng/mL; in data set [11], 436 ng/mL; in data set [15], 303 ng/mL; in [17] it was 210 ng/mL. The compound also showed an AUCt in data set [8] of 1164 ng·min/mL. In data set [9], the Vd/F worked out at 0.253 L/kg. The AUC(0-t) in data set [12] is 906 ng·h/mL; in [13] it was 438 ng·h/mL; in data set [18] it was 726 ng·h/mL.

What is called IC50 is the midpoint of a concentration-inhibition curve. A lower IC50 goes with inhibition by little substance. As usually defined, the Ki is a measure of affinity in units of concentration, obtained from inhibition or displacement. In general, pKi refers to −log10 of the Ki, conventionally taken in molar units. Low readings indicate a large Ki, high ones a small Ki. The microsomal CLint is the rate of metabolic loss divided by the concentration. As usually defined, the Tmax is the time at which the peak concentration occurs. What is called Cmax is the peak of the concentration-time curve. By Vd/F is commonly meant the apparent distribution volume after extravascular dosing. As a reminder, the AUC(0-t) is exposure summed from dosing to a finite time, without extrapolation to infinity.
